Laboratory results as given in patent publication US20230157952A1, “METHOD FOR IMPROVING THE STABILITY OF A PHARMACEUTICAL COMPOSITION COMPRISING A HIGH PENETRATION DRUG, AND THE PHARMACEUTICAL COMPOSITION OBTAINED THEREFROM” (Techfields Inc., priority 2020, published 2023).

Test: Effect of temperature (and pH) on the stability of the solution (purity)
Format: physicochemical
Conditions: 7% solution in water

SMILES | Stability of the solution at a temperature higher than 40° C. and a pH lower than 3 or greater than 6
CCN(CC)CCOC(=O)COC(=O)Cc1c(C)n(C(=O)c2ccc(Cl)cc2)c2ccc(OC)cc12.Cl [2-(diethylamino)ethyl 1-(4-chlorobenzoyl-5-methoxy-2-methyl-1H-indole-3-acetoxyacetate.HCl] | not stable
CCN(CC)CCOC(=O)Cc1ccccc1Oc1ccc(Cl)cc1Cl.Cl [2-(diethylamino)ethyl 2-(2,4-dichlorophenoxy)benzeneacetate.HCl] | not stable
CCN(CC)CCOC(=O)COc1nn(Cc2ccccc2)c2ccccc12.Cl [2-(diethylamino)ethyl [(1-benzyl-1H-indazol-3-yl)oxy]acetate•HCl] | not stable
